Data set [1] deals with kaolin-induced inflammation in the hind paw. The data set is described as follows: Kaolin model of acute inflammatory pain, lameness score. Format: in vivo, dog.
Description: Kaolin-induced inflammation in the hind paw was performed based on the model described in “Paw inflammation model in dogs for preclinical pharmacokinetic/pharmacodynamic investigations of nonsteroidal anti-inflammatory drugs” (Jeunesse et al., 2011, J Pharmacol Exp Ther., 338 (2): 548-58). Briefly, the dogs were anaesthetized with an intravenous administration of propofol (Propovet, 6.5 mg/kg, Zoetis, France) and kaolin was injected subcutaneously on one paw. On D42, the injections were performed on the right hind paw of all dogs.
Lameness score was assessed on a typical course made by each dog using a numerical rating scale initially developed by Giraudel et al. (Giraudel J M et al., 2005, Br J Pharmacol 146:642-653; Giraudel J M et al., 2005, J Vet Pharmacol Ther 28:275-285) on cats and adapted by Jeunesse et al. (Jeunesse et al., 2011, J Pharmacol Exp Ther., 338 (2): 548-58). […] Lameness score was assessed on live and separately on videos by a different operator. […]
The subject of data set [2] is canine NGF protein. The data set is described as follows: NGF total IgG ELISA in dog sera, kaolin study (Example 7). Type of data set: in vivo. Conditions: study day 42; vaccine 250 μg s.c. D0 and D21; bedinvetmab s.c. once D35. How it is done: (§1) The range of the actual doses of bedinvetmab administered was 0.52-0.97 mg/kg in line with the product information of the marketing authorization. • For the Vaccine group, the dogs received the inventive vaccine candidate, cNGF-CMV-Ntt830-E4 VLP, twice subcutaneously at the back of the neck on day 0 (DO) and day 21 (D21) at the dose of 250 μg VLP-NGF/dog.
Blood samples for serology were collected at the following time points on DO, D21, D70, D84, D105 and D119 for the Vaccine and the Placebo groups only, on D35 for the Librela® group only, on D42 and on D56 for the three group. Blood samples were centrifuged and the serum decanted into three aliquots per sample.
NGF- and cNGF-CMV-Ntt830-E4 VLP total specific IgG antibodies in sera were measured by ELISA. ELISA plates were coated with recombinantly produced canine NGF protein (1.0 μg/mL) or cNGF-CMV-Ntt830-E4 VLP (2.0 μg/mL). Serum samples were pre-diluted 1:100, transferred to the ELISA plates and subjected to serial dilutions 3-fold serial dilution steps with a total of 11 dilutions being tested per serum sample. […] Relative concentrations of anti-NGF IgG antibody in the serum (μg/mL) were calculated by multiplying the EC50 values of the serum with the EC50 values determine for the Bedinvetmab standard. […]

The target of a further data set is human beta-NGF (Homo sapiens, UniProt P01138). The data set is described as follows: TF-1 cell based NGF neutralization bioassay, kaolin study. Here is the method: as §1
Sequence of human beta-NGF (P01138 122-241): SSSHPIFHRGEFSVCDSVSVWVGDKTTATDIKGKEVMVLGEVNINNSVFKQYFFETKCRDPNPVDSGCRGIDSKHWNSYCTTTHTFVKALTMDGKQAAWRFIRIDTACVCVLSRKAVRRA
Heat-inactivated (56° C. 30 min), serial-diluted sera or antibody standard (canonized monoclonal anti-canine NGF antibody bedinvetmab, Zoetis) were incubated with 5 ng/mL human beta-NGF for 1 hour at room temperature. The NGF-sera/antibody solution was then added to […] starved overnight of growth factors. Cell viability was quantified over the last 7 hour period of a total 72 hour incubation period using the CellTiter 96 AQueous One Solution Cell Proliferation Assay reagent (Promega). Absorbance was measured using a microplate reader (TecanSpark) at a wavelength of 490 nm and a reference wavelength of 700 nm. Titration curves were generated by plotting the difference in absorbance (490 nm-700 nm) versus the dilution factor of the serum sample. Using a 4-Parameter logistic regression curve fit model the IC50 values, the dilution factor corresponding to half maximum OD values, were determined. Serum titers of samples at different time points were defined and depicted as the IC50 values of the curve fit. […]

For data set [3], the system named is canine NGF protein. The data set is described as follows: NGF total IgG ELISA in dog sera, ACLT+PMM chronic pain study (Example 8). Format: in vivo. The note with it: day 203 sera, group B, monthly s.c. administration. How it is done: NGF- and cNGF-CMV-Ntt830-E4 VLP total specific IgG antibodies in sera were measured by ELISA. ELISA plates were coated with recombinantly produced canine NGF protein (1.0 μg/mL) or cNGF-CMV-Ntt830-E4 VLP (2.0 μg/mL). Serum samples were pre-diluted 1:100, transferred to the ELISA plates and subjected to serial dilutions 3-fold serial dilution steps with a total of 11 dilutions being tested per serum sample. Following incubation, horse-radish peroxidase-(HRP-) labelled goat anti-dog IgG (Jackson ImmunoResearch, cat no 304-035-008, lot 156911) was added. After 2 hours incubation at room temperature, the plates were washed 4 times with 1×PBS/0.05% (v/v) Tween 20. […] Serum titers of samples at different time points were defined and depicted as the EC50 values of the curve fit. Titers below the detection limit of the assay were set to 100 for anti-CMV IgG respectively 50 for anti-NGF IgG, half of the lowest dilution factor (1:200 respectively 1:100) used in the assay. Bedinvetmab was used as a standard in the NGF IgG ELISA. Relative concentrations of anti-NGF IgG antibody in the serum (μg/mL) were calculated by multiplying the EC50 values of the serum with the EC50 values determine for the Bedinvetmab standard. Neutralization titers below the detection limit of the assay were set the equivalent monoclonal antibody concentration of the EC50 value of 50. […]
(In general: An ELISA detects its analyte on a solid surface through an enzyme-linked reagent.)

For another data set, the target named is T1, hNGF binding to TrkA (Homo sapiens, UniProt P01138).
T1 construct: 5 ng/ml human mature NGF (R&D, 256-GF-100/CF); purchased R&D (hNGF); SinoBio (TrkA) 256-GF; 11073-H08H
T1 sequence (P01138 122-241): as above
Put plainly: TrkA based NGF binding ELISA, ACLT+PMM study. The note with it: day 203, group B, 6 days after administration. Type of data set: biochemical. Here is the method: ELISA plates were coated with 100 μL/well of 0.5 μg/mL TrkA (SinoBio 11073-H08H) in PBS over night at +4° C. After washing with PBST, plates were blocked using 200 μL/well SuperBlock (ThermoScientific 37518) for 1 hour at room temperature. Serum samples or positive control antibody (caninized monoclonal anti-canine NGF antibody bedinvetmab, Zoetis) were diluted in 2% BSA/PBST and incubated with 1.25 ng/ml hNGF (R&D 256-GF) for 1 hour. After washing the ELISA plates, serum/NGF solution was added to the plates. Plates were incubated for 1 hour at room temperature, washed and HRP-labelled rabbit anti-NGF antibody (SinoBio 11050-RP02-H) at a concentration of 1.5 μg/mL was added. After the plates were washed 4 times with 1×PBS/0.05% (v/v) Tween 20, TMB substrate (ThermoScientific 3401) as the HRP substrate and development reaction was stopped by addition of 2M H2SO4. OD values at 450 nm were measured using a microplate reader (TecanSpark). […] Using a 4-Parameter logistic regression curve fit model the IC50 values, the dilution factor corresponding to half maximum OD 450 nm values, were determined. […] Relative concentrations of neutralizing antibody in the serum (μg/mL) were calculated by multiplying the IC50 values of the serum with the IC50 values determine for the bedinvetmab standard (μg/mL). […]

The conditions of data set [4]: in vivo; cited from earlier work.
Data set [5] in a line: Thermal shift assay with SYPRO Orange (thermal stability of VLPs). Type of data set: physicochemical. Conditions: 0.5 mg/ml VLPs in 5 mM Na phosphate, 2 mM EDTA, pH 7.5, real-time PCR system. How it is done:
A thermal shift assay involving temperature-induced denaturation and the fluorescent dye SYPRO® Orange (Sigma, Saint Louis, USA) was used for this purpose. The dye is a naturally quenched in solution but as the VLPs denature with increasing temperatures, SYPRO® Orange interacts with exposed hydrophobic amino acids and cores and emits a fluorescent signal, which is measured by fluorometry. From the resultant melting curve (fluorescent signal vs temperature), the melt peak curves and melting temperature were determined. Solutions containing 0.5 mg/ml of sucrose density gradient purified (as described in Example 1 above) CMV-Ntt830 VLPs or CMV-Ntt830-E4 VLPs in 5 mM Na phosphate, 2 mM EDTA, pH 7.5 were assayed with a real-time PCR system MJ Mini (Bio-Rad, Hercules, USA) using a DNA melting point determination program. Data were analysed using Opticon Monitor Software and melting curves processed at a smooth setting of four.

A short description of data set [6]: Ionic strength/salt stability of VLPs in NaCl, native agarose gel electrophoresis. Format: physicochemical. The note with it: NaCl concentrations up to 0.4 M, room temperature, 0.5 mg/ml, pH 7.5. Here is the method:
FIG. 12: Stability of CMV-Ntt830 VLPs and CMV-Ntt830-E4 VLPs in solution in the presence of different NaCl concentrations. Samples of CMV-Ntt830 VLPs and CMV-Ntt830-E4 VLPs at 0.5 mg/ml were incubated at room temperature in 5 mM Na phosphate, 2 mM EDTA, pH 7.5 with different concentrations of NaCl (the molar concentration of NaCl in each sample is indicated at the bottom of the gels) for up to 2 hours. Samples were analysed by native agarose gel electrophoresis and ethidium bromide staining. Panels A and B show NAGE analysis of CMV-Ntt830 VLP and CMV-Ntt830-E4 VLPsamples respectively. […] Black arrows indicate the position of loading wells within the gels and location of VLPs within the wells and gels. The presence of CMV-Ntt830 VLPs in the loading wells after electrophoresis (panel A) is due to the formation of VLP aggregates which are too large to enter the gel. Integral unaggreagted VLPs migrated into the gel.
The relative stabilities of CMV-Ntt830 VLPs and CMV-Ntt830-E4 VLPs to NaCl were tested by incubating purified VLPs (0.5 mg/ml in 5 mM Na phosphate, 2 mM EDTA, pH 7.5) at room temperature with various NaCl concentrations.

Data set [7] can be described thus: Processability of VLPs by anion exchange chromatography (aggregation by NAGE). Format: physicochemical. Conditions: DEAE resin, pH 9.0, NaCl elution. Here is the method:
To test the processability of prior art CMV-Ntt830 VLPs with anion exchange chromatography (AEX), sucrose gradient purified VLPs were prepared as described in Examples 2-4 of WO2016/062720A1. Five mls of CMV-Ntt830 VLPs (1 mg/ml) were buffer exchanged into 5 mM sodium borate pH 9 and loaded onto a 1.0 ml Macro-Prep DEAE Bio-Rad anion exchange cartridge equilibrated with the same buffer. After the loading step, the concentration of NaCl in the elution buffer was increased in step-wise manner (0.1, 0.2, 0.3, 0.4, 0.5, 0.8., 1.0 and 2.0 M). Fractions were collected and measured at 260 nm using Nanodrop spectrophotometer to measure protein and subjected to native agarose gel electrophoresis (NAGE).
In contrast, non-aggregated CMV-Ntt830-E4 VLPs could be readily purified from a crude lysate using AEX. Clarified lysate prepared from E. coli expressing CMV-Ntt830-E4 VLPs (as described in Example 1) in 50 mM citrate, 5 mM Borate buffer pH 9.0 was loaded onto 60 ml of Fracto-DEAE (Merck) in an XK 26/20 column equilibrated with the same buffer and eluted by applying a continuous NaCl gradient from 0 to 1.0 M in the same buffer. The eluate was monitored at A260 nm to measure protein and conductivity measured to monitor salt concentration. The clarified lysate, flow-through and fractions were collected and subjected to NAGE and SDS-PAGE.

A further data set deals with PC12 cells. Put plainly: Neurite outgrowth bioassay for authenticity of recombinant NGF. Type of data set: cell-based. The note with it: 5 days, 6.25-100 ng/ml NGF. Here is the method: FIG. 15B: PC12 cells were grown for 5 days with recombinant human mature NGF produced in mouse myeloma cells (R&D systems) (black squares) or with canine mature NGF produced in E. coli as described herein (grey circles). Cells were grown in the presence of 100, 50, 25, 12.5 and 6.25 ng/ml of recombinant NGF and the percentage of cells with defined neurite outgrowth determined.

For the molecule `Cc1cnc(NC(=O)C2=C(O)c3ccccc3S(=O)(=O)N2C)s1` [Inflacam®, meloxicam], the “mean lameness score as compared to the Placebo group” value in [1] (one day after kaolin-induced inflammation, 0.2 mg meloxicam/kg s.c. D43) is “reduced”.

With bedinvetmab, the “NGF-specific IgG GMT (standard equivalent concentration), peak” value with canine NGF protein [2] was 3.68 µg/mL. The “peak NGF neutralizing titers” value at human beta-NGF (study day 42, study group 1) amounted to 3.93 µg/mL. For the same molecule, at human beta-NGF (study day 56, 21 days after administration), the “dogs with levels below the detection limit of the TF-1-based NGF neutralization assay” value is on record as 6 of 7. In [1] (14 days post kaolin challenge, 7 dogs/group), the “mean AUC for lameness scores” value was found to be 15.36. In the data set on canine NGF protein [3], the “NGF-specific IgG GMT” value came out at 10.9 µg/mL. In addition, the “NGF neutralizing antibody titers” value on hNGF binding to TrkA was 7.85 µg/mL. In [4], the “mean titers (dashed line FIG. 24B)” value is 1 µg/mL and the “peak antibody titer in serum after administration of bedinvetmab” value is 6.1 µg/mL.

“CMV-Ntt830-E4 VLPs: modified CMV VLP of chimeric CMV polypeptide SEQ ID NO:10, four glutamic acid residues (E4) inserted into CMV-Ntt830”: in data set [5], the “melting temperature (melting point)” value is approximately 57 °C. Further, in data set [6], the “aggregate formation in presence of NaCl” value is listed as “no evidence of aggregate formation”. In [7], the “aggregated VLPs after anion exchange chromatography (NAGE loading wells)” value is listed as “no evidence of aggregated VLPs”.

B1: canine mature NGF: recombinant canine mature NGF (SEQ ID NO:30) produced in E. coli, with C-terminal GCG motif (SEQ ID NO:31) or His-tag (SEQ ID NO:33) (protein)
chain: SSSHPVFHRGEFSVCDSVSVWVGDKTTATDIKGKEVMVLGEVNINNSVFKQYFFETKCRDPTPVDSGCRGIDSKHWNSYCTTTHTFVKALTMDGKQAAWRFIRIDTACVCVLSRKAGRRAG
modifications: C-terminal GCG motif or His-tag
For B1, in the data set with PC12 cells, the “activity at inducing neurite outgrowth compared with commercial mature NGF (R&D systems)” value was “similarly active”.

The values are drawn from patent US20250281584A1, “ACTIVE VACCINATION FOR THE TREATMENT OF NGF-RELATED DISORDERS” (priority 2024, published 2025).
